From US20250100998A1, “PARP7 INHIBITORS” (Gilead Sciences, Inc., priority 2023, published 2025)

Tested on: STAT1 (phosphorylated at Tyr701) in NCI-H1373 cells
Assay: Phospho-STAT1 (Tyr701) LANCE Ultra TR-FRET detection assay
Type: cell-based
Conditions: Homo sapiens, NCI-H1373, 48 h, induction of pSTAT1 in NCI-H1373 cells, 48 hours incubation; normalized to 10 uM positive control and DMSO; 4-parameter fit; read-out: NH1373 pSTAT1 EC50
Method: Phospho-STAT1 (Tyr701 LANCE Ultra TR-FRET Detection Assay
LANCE Ultra phospho-STAT1 (Tyr701) kits are designed for the detection of phosphorylated STAT1 in cell lysates using a simple, homogeneous LANCE Ultra sandwich assay (Cat. #TRF4028M). This assay is intended for assessing compound induction of endogenous levels of cellular STAT1 (phosphorylated at Tyr701) in NCI-H1373 cells. The NCI-H1373 cells are cultured in RPMI 1640 media containing 10% heat inactivated FBS, GlutaMAX, 1% Penicillin-Streptomycin. An Echo acoustic liquid handler is used to transfer 60 nanoliters of compound dilutions using the Echo Qualified, 384-well polypropylene microplate clear flat bottom source plates into a Greiner (#781080) cell culture microplate. NCI-H1373 cells are seeded into these compound-spotted culture plates at 30,000 cells/well in a 60 uL volume in growth media. The plates are incubated in a 5% CO2 humidified incubator at 37° C. for 48 hours. […] Briefly, […] of supplemented lysis buffer is added to each well and allowed to shake for 1 hour at 400 rpm. Next, 5 ul of remixed antibody solutions (vol/vol) prepared in detection buffer are added to each well and allowed to incubate at room temperature overnight. After spinning the plate down at 300 rpm for 1 min, the plate is read on an EnVision plate reader set up for Eu3+ Cryptate and fluorescence emission is measured at two different wavelengths (665 nm and 620 nm). The HTRF ratio is then calculated ([…]) for each well to determine the amount of pSTAT1 in the cell lysate, and the data is then normalized to 10 uM (S)-5-((1-(3-oxo-3-(4-(5-(trifluoromethyl)pyrimidin-2-yl)piperazin-1-yl)propoxy)propan-2-yl)amino)-4-(trifluoromethyl)pyridazin-3(2H)-one positive and DMSO negative controls. The values were then plotted as a function of compound concentration and a 4-parameter fit was applied to derive the EC50 values.

| SMILES | EC50 [nM] |
| --- | --- |
| COc1cnc(-c2cc3c(F)cn(C[C@@H]4CCC[C@H](Oc5cn[nH]c(=O)c5C(F)(F)F)C4)c(=O)c3c(F)c2F)nc1 [Example 53, 4,7,8-trifluoro-6-(5-methoxypyrimidin-2-yl)-2-(((1R,3S)-3-((6-oxo-5-(trifluoromethyl)-1,6-dihydropyridazin-4-yl)oxy)cyclohexyl)methyl)isoquinolin-1(2H)-one] | 2.09 |
| CC(C)(O)c1cnc(-c2cc3c(cc2F)C(=O)N(C[C@@H]2CCC[C@H](Nc4cn[nH]c(=O)c4C(F)(F)F)C2)CC3)nc1 [Example 73, 7-fluoro-6-(5-(2-hydroxypropan-2-yl)pyrimidin-2-yl)-2-(((1R,3S)-3-((6-oxo-5-(trifluoromethyl)-1,6-dihydropyridazin-4-yl)amino)cyclohexyl)methyl)-3,4-dihydroisoquinolin-1(2H)-one] | 7.8 |
| COc1cnc(-c2cc3c(Cl)cn(C[C@@H]4CCC[C@H](Nc5cn[nH]c(=O)c5C(F)(F)F)C4)c(=O)c3cc2F)nc1 [Example 58, 4-chloro-7-fluoro-6-(5-methoxypyrimidin-2-yl)-2-[[(1R,3S)-3-[[6-oxo-5-(trifluoromethyl)-1H-pyridazin-4-yl]amino]cyclohexyl]methyl]isoquinolin-1-one] | 5.91 |
| O=c1[nH]ncc(N[C@H]2CCC[C@@H](Cn3cc(F)c4cc(-c5ncc(OC(F)(F)F)cn5)c(F)c(F)c4c3=O)C2)c1C(F)(F)F [Example 44, 4,7,8-trifluoro-2-[[(1R,3S)-3-[[6-oxo-5-(trifluoromethyl)-1H-pyridazin-4-yl]amino]cyclohexyl]methyl]-6-[5-(trifluoromethoxy)pyrimidin-2-yl]isoquinolin-1-one] | 4.17 |
| O=c1[nH]ncc(N[C@@H]2C[C@H](Cn3ccc4cc(-c5ncc(C(F)(F)F)cn5)c(F)cc4c3=O)CC(F)(F)C2)c1C(F)(F)F (single isomer, unassigned) [Example 66] | 29.2 |
| O=c1[nH]ncc(N[C@H]2CCC[C@@H](Cn3ccc4cc(-c5ncc(F)cn5)c(F)cc4c3=O)C2)c1C(F)(F)F [Example 12, 7-fluoro-6-(5-fluoropyrimidin-2-yl)-2-(((1R,3S)-3-((6-oxo-5-(trifluoromethyl)-1,6-dihydropyridazin-4-yl)amino)cyclohexyl)methyl)isoquinolin-1(2H)-one] | 23.2 |
| O=c1[nH]ncc(N[C@H]2CCO[C@@H](Cn3ccc4cc(-c5nc6ccccn6n5)c(F)c(F)c4c3=O)C2)c1C(F)(F)F [Example 65, 7,8-difluoro-2-[[(2R,4S)-4-[[6-oxo-5-(trifluoromethyl)-1H-pyridazin-4-yl]amino]tetrahydropyran-2-yl]methyl]-6-([1,2,4]triazolo[1,5-a]pyridin-2-yl)isoquinolin-1-one1-one] | 20.3 |
| CC(O)c1cnc(-c2cc3ccn(C[C@@H]4CCC[C@H](Nc5cn[nH]c(=O)c5C(F)(F)F)C4)c(=O)c3cc2F)nc1 (stereo partly drawn) [Example 10, 7-fluoro-6-(5-(1-hydroxyethyl)pyrimidin-2-yl)-2-(((1R,3S)-3-((6-oxo-5-(trifluoromethyl)-1,6-dihydropyridazin-4-yl)amino)cyclohexyl)methyl)isoquinolin-1(2H)-one] | 6.86 |
| O=c1[nH]ncc(N[C@H]2CCC[C@@H](Cn3cc(F)c4cc(-c5ncc(OCCO)cn5)c(F)c(F)c4c3=O)C2)c1C(F)(F)F [Example 36, 4,7,8-trifluoro-6-(5-(2-hydroxyethoxy)pyrimidin-2-yl)-2-(((1R,3S)-3-((6-oxo-5-(trifluoromethyl)-1,6-dihydropyridazin-4-yl)amino)cyclohexyl)methyl)isoquinolin-1(2H)-one] | 4.21 |
| O=c1[nH]ncc(O[C@H]2CCC[C@@H](Cn3cc(F)c4cc(-c5ncc(OC(F)(F)F)cn5)c(F)c(F)c4c3=O)C2)c1C(F)(F)F [Example 49, 4,7,8-trifluoro-2-(((1R,3S)-3-((6-oxo-5-(trifluoromethyl)-1,6-dihydropyridazin-4-yl)oxy)cyclohexyl)methyl)-6-(5-(trifluoromethoxy)pyrimidin-2-yl)isoquinolin-1(2H)-one] | 4.89 |
| O=c1[nH]ncc(N[C@H]2C[C@@H](Cn3ccc4cc(-c5ncc(C(F)(F)F)cn5)c(F)cc4c3=O)CC(F)(F)C2)c1C(F)(F)F (single isomer, unassigned) [Example 67] | 100 |
| CC(O)(c1cnc(-c2cc3ccn(C[C@@H]4CCC[C@H](Nc5cn[nH]c(=O)c5C(F)(F)F)C4)c(=O)c3cc2F)nc1)C(F)F (stereo partly drawn) [Example 27, 6-(5-(1,1-difluoro-2-hydroxypropan-2-yl)pyrimidin-2-yl)-7-fluoro-2-(((1R,3S)-3-((6-oxo-5-(trifluoromethyl)-1,6-dihydropyridazin-4-yl)amino)cyclohexyl)methyl)isoquinolin-1(2H)-one] | 16.8 |
| [2H]C([2H])([2H])Oc1cnc(-c2cc3ncn(C[C@@H]4CCC[C@H](Nc5cn[nH]c(=O)c5C(F)(F)F)C4)c(=O)c3cc2F)nc1 [Example 26, 6-fluoro-7-(5-(methoxy-d3)pyrimidin-2-yl)-3-(((1R,3S)-3-((6-oxo-5-(trifluoromethyl)-1,6-dihydropyridazin-4-yl)amino)cyclohexyl)methyl)quinazolin-4(3H)-one] | 5.63 |
| O=c1[nH]ncc(N[C@H]2CCC[C@@H](Cn3ccc4cc(-c5ncc(OCCO)cn5)c(F)c(F)c4c3=O)C2)c1C(F)(F)F [Example 47, 7,8-difluoro-6-(5-(2-hydroxyethoxy)pyrimidin-2-yl)-2-(((1R,3S)-3-((6-oxo-5-(trifluoromethyl)-1,6-dihydropyridazin-4-yl)amino)cyclohexyl)methyl)isoquinolin-1(2H)-one] | 4.86 |
| O=c1[nH]ncc(N[C@H]2CCC[C@@H](Cn3cc(Cl)c4cc(-c5nc6ccccn6n5)c(F)cc4c3=O)C2)c1C(F)(F)F [Example 59, 6-([1,2,4]triazolo[1,5-a]pyridin-2-yl)-4-chloro-7-fluoro-2-(((1R,3S)-3-((6-oxo-5-(trifluoromethyl)-1,6-dihydropyridazin-4-yl)amino)cyclohexyl)methyl)isoquinolin-1(2H)-one] | 2.02 |
| CC(C)(O)c1cnc(-c2cc3c(F)cn(C[C@@H]4CCC[C@H](Nc5cn[nH]c(=O)c5C(F)(F)F)C4)c(=O)c3cc2F)nc1 [Example 39] | 4.2 |
| O=c1[nH]ncc(N[C@H]2CCO[C@@H](Cn3ccc4cc(-c5nc6ccccn6n5)c(F)cc4c3=O)C2)c1C(F)(F)F [Example 64, 7-fluoro-2-[[(2R,4S)-4-[[6-oxo-5-(trifluoromethyl)-1H-pyridazin-4-yl]amino]tetrahydropyran-2-yl]methyl]-6-([1,2,4]triazolo[1,5-a]pyridin-2-yl)isoquinolin-1-one] | 36.1 |
| O=c1[nH]ncc(N[C@H]2CCC[C@@H](Cn3cc(F)c4cc(-c5ncc(C(F)F)cn5)c(F)c(F)c4c3=O)C2)c1C(F)(F)F [Example 34, 6-(5-(difluoromethyl)pyrimidin-2-yl)-4,7,8-trifluoro-2-(((1R,3S)-3-((6-oxo-5-(trifluoromethyl)-1,6-dihydropyridazin-4-yl)amino)cyclohexyl)methyl)isoquinolin-1(2H)-one] | 0.952 |
| CS(=N)(=O)c1cnc(-c2cc3ccn(C[C@@H]4CCC[C@H](Nc5cn[nH]c(=O)c5C(F)(F)F)C4)c(=O)c3c(F)c2F)nc1 (stereo partly drawn) [Example 24, 7,8-difluoro-6-(5-(methylsulfonimidoyl)pyrimidin-2-yl)-2-(((1R,3S)-3-((6-oxo-5-(trifluoromethyl)-1,6-dihydropyridazin-4-yl)amino)cyclohexyl)methyl)isoquinolin-1(2H)-one] | 38.1 |
| CC(F)(F)c1cnc(-c2cc3c(F)cn(C[C@@H]4CCC[C@H](Nc5cn[nH]c(=O)c5C(F)(F)F)C4)c(=O)c3cc2F)nc1 [Example 42] | 2.45 |
| CC(C)(O)COc1cnc(-c2cc3ccn(C[C@@H]4CCC[C@H](Nc5cn[nH]c(=O)c5C(F)(F)F)C4)c(=O)c3c(F)c2F)nc1 [Example 16, 7,8-difluoro-6-(5-(2-hydroxy-2-methylpropoxy)pyrimidin-2-yl)-2-(((1R,3S)-3-((6-oxo-5-(trifluoromethyl)-1,6-dihydropyridazin-4-yl)amino)cyclohexyl)methyl)isoquinolin-1(2H)-one] | 31.3 |
| O=c1[nH]ncc(N[C@H]2CCC[C@@H](Cn3cc(F)c4cc(-c5ncc(OC(F)(F)F)cn5)c(F)cc4c3=O)C2)c1C(F)(F)F [Example 23, 4,7-difluoro-2-(((1R,3S)-3-((6-oxo-5-(trifluoromethyl)-1,6-dihydropyridazin-4-yl)amino)cyclohexyl)methyl)-6-(5-(trifluoromethoxy)pyrimidin-2-yl)isoquinolin-1(2H)-one] | 9.13 |
| O=c1[nH]ncc(O[C@H]2CCC[C@@H](Cn3ccc4cc(-c5ncc(C(F)F)cn5)c(F)c(F)c4c3=O)C2)c1C(F)(F)F [Example 54, 6-(5-(difluoromethyl)pyrimidin-2-yl)-7,8-difluoro-2-(((1R,3S)-3-((6-oxo-5-(trifluoromethyl)-1,6-dihydropyridazin-4-yl)oxy)cyclohexyl)methyl)isoquinolin-1(2H)-one] | 2.38 |
